Where a name gives a salt, the structure may show the parent alone.
Key:
Assay type in all cases: cell-based
[1] = system: NOTCH2; assay: RNA-seq of NOTCH2 expression in compound-treated primary human hepatocytes; conditions: for NOTCH2 Fold Change (Log2): primary human hepatocytes
Description: (§1) Human hepatocytes were obtained from two donors from Massachusetts General Hospital, namely MGH54 and MGH63, and one donor from Lonza, namely HUM4111B. Cryopreserved hepatocytes were cultured in plating media for 16 hours, transferred to maintenance media for 4 hours. Cultured on serum-free media for 2 hours, then a compound was added. The hepatocytes were maintained on the serum-free media for 16 hours prior to gene expression analysis. Primary human hepatocytes were stored in the vapor phase of a liquid nitrogen freezer (about -130° C.). Human hepatocytes cultured as described above were plated in 24-well format, adding 375,000 cells per well in a volume of 500 ul plating medium. Four hours before treatment, cells were washed with PBS and the medium was changed to either: fresh maintenance medium (complete) or modified maintenance medium. Compound stocks were prepared at 1000× final concentration and added in a 2-step dilution to the medium to reduce risk of a compound precipitating out of solution when added to the cells, and to ensure reasonable pipetting volumes. […] The plate was mixed by carefully swirling and after all wells were treated and returned to the incubator overnight. If desired, separate plates/wells were treated with vehicle-only controls and/or positive controls. If using multi-well plates, controls were included on each plate. After about 18 hours, cells were harvested for further analysis, e.g., ChIP-seq, RNA-seq, ATAC-seq, etc. This protocol is a modified version of the following protocols: MagMAX mirVana Total RNA Isolation Kit User Guide (Applied Biosystems #MAN0011131 Rev B.0), NEBNext Poly(A) mRNA Magnetic Isolation Module ([…]), and NEBNext Ultra Directional RNA Library Prep Kit for Illumina ([…]) (New England Biosystems #E74901). […] Two hundred μl of Lysis Binding Mix was used per well of the multiwell plate containing adherent cells (usually a 24-well plate). For mRNA isolation and library prep, the NEBNext Poly(A) mRNA Magnetic Isolation Module and Directional Prep kit was used. RNA isolated from cells above was quantified, and prepared in […] of each sample in 50 μl of nuclease-free water. This protocol may be run in microfuge tubes or in a 96-well plate. […] Genomic alignments were converted to transcriptome alignments based on reference transcript annotations from the Human GENCODE Gene Set release 24 (Harrow et al., Genome Res. […] Standard QC were applied (read integrity, mapping statistics, library complexity, fragment bias) to remove unsatisfactory samples. Differential gene expression was computed using the negative binomial model implemented by DESeq2 version 1.16.1 (Love et al., Genome Biol. (2014) 15(12):550). […] RNA-seq signals were also normalized by read depth and visualized using the UCSC browser. To identify small molecules that modulate target gene expression, primary human hepatocytes were prepared as a monoculture, and at least one small molecule compound was applied to the cells. RNA-seq was performed to determine the effects of the compounds on the expression of the target genes in hepatocytes. Fold change was calculated by dividing the level of expression in the cell system that had been perturbed by the level of expression in an unperturbed system.

[2] = system: JAG1; assay: RNA-seq of JAG1 expression in compound-treated primary human hepatocytes; conditions: for JAG1 Fold Change (Log2): primary human hepatocytes; for Significant modulation of JAG1 (in words): summary of Table 6
Description: as §1

[3] = system: ANGPTL3; assay: RNA-seq of ANGPTL3 expression in compound-treated primary human hepatocytes; conditions: additional compounds (Table 13), linear fold change
Description: (§2) Human hepatocytes were obtained from two donors from Massachusetts General Hospital, namely MGH54 and MGH63, and one donor from Lonza, namely HUM4111B. Cryopreserved hepatocytes were cultured in plating media for 16 hours, transferred to maintenance media for 4 hours. Cultured on serum-free media for 2 hours, then a compound was added. The hepatocytes were maintained on the serum-free media for 16 hours prior to gene expression analysis. Primary human hepatocytes were stored in the vapor phase of a liquid nitrogen freezer (about −130° C.).
(§3) Human hepatocytes cultured as described above were plated in 24-well format, adding 375,000 cells per well in a volume of 500 ul plating medium. Four hours before treatment, cells were washed with PBS and the medium was changed to either: fresh maintenance medium (complete) or modified maintenance medium.
(§4) Compound stocks were prepared at 1000× final concentration and added in a 2-step dilution to the medium to reduce risk of a compound precipitating out of solution when added to the cells, and to ensure reasonable pipetting volumes. One at a time, each compound was first diluted 10-fold in warm (about 37° C.) modified maintenance medium (initial dilution=ID), mixed by vortexing, and the ID was diluted 100-fold into the cell culture (e.g. 5.1 ul into 1 well of a 24-well plate containing 0.5 mL medium). The plate was mixed by carefully swirling and after all wells were treated and returned to the incubator overnight. If desired, separate plates/wells were treated with vehicle-only controls and/or positive controls. If using multi-well plates, controls were included on each plate. After about 18 hours, cells were harvested for further analysis, e.g., ChIP-seq, RNA-seq, ATAC-seq, etc.
(§5) This protocol is a modified version of the following protocols: MagMAX mirVana Total RNA Isolation Kit User Guide (Applied Biosystems #MAN0011131 Rev B.0), NEBNext Poly(A) mRNA Magnetic Isolation Module (E7490), and NEBNext Ultra Directional RNA Library Prep Kit for Illumina (E7420) (New England Biosystems #E74901).
(§6) The MagMAX mirVana kit instructions (the section titled “Isolate RNA from cells” on pages 14-17) were used for isolation of total RNA from cells in culture. Two hundred μl of Lysis Binding Mix was used per well of the multiwell plate containing adherent cells (usually a 24-well plate).
(§7) For mRNA isolation and library prep, the NEBNext Poly(A) mRNA Magnetic Isolation Module and Directional Prep kit was used. RNA isolated from cells above was quantified, and prepared in […] of each sample in 50 μl of nuclease-free water. This protocol may be run in microfuge tubes or in a 96-well plate.
All pass filter reads from each sample were mapped against the human genome (assembly GRCh38/GCA_000001405.15 “no alt” analysis set merged with hs38d1/GCA_000786075.2) using two pass mapping via STAR version 2.5.3a (alignment parameters alignIntronMin=20; alignIntronMax=1000000; outFilterMismatchNmax=999; outFilterMismatchNoverLmax=0.05; outFilterType=BySJout; outFilterMultimapNmax=20; alignSJoverhangMin=8; alignSJDBoverhangMin=1; alignMatesGapMax=1000000) (Dobin et al., Bioinformatics (2012) 29(1):15-21). Genomic alignments were converted to transcriptome alignments based on reference transcript annotations from the Human GENCODE Gene Set release 24 (Harrow et al., Genome Res. (2012) 22(9): 1760-1774). Using unique and multimapped transcriptomic alignments, gene-level abundance estimates were computed using RSEM version 1.3.0 (Li and Dewey, BMC Bioinformatics (2011) 12:323) in a strand-aware manner, and including confidence interval sampling calculations, to arrive at posterior mean estimates (PME) of abundances (counts and normalized FPKM—fragments per kilobase of exon per million mapped fragments) from the underlying Bayesian model. Standard QC were applied (read integrity, mapping statistics, library complexity, fragment bias) to remove unsatisfactory samples.

[4] = system: MECP2 mRNA; assay: MECP2 mRNA in primary human hepatocytes (donor 1, donor 2); conditions: average fold change; for Human hep donor-1 MECP2 (Avg_FC) 1 uM / Human hep donor-1 MECP2 (Avg_FC) 10 uM: human hepatocytes donor-1
Description: as §2, §3, §4
Samples were amplified using Taqman probes from ThermoFisher.

[5] = system: MECP2 mRNA; assay: MECP2 mRNA in stellate cells; conditions: average fold change; for Stellate MECP2 (Avg_FC) 1 uM: compound 1 uM; for Stellate MECP2 (Avg_FC) 10 uM: compound 10 uM
[6] = system: UGT1A1; assay: RNA-seq of UGT1A1 expression in compound-treated primary human hepatocytes
Description: as §2, §3, §4, §5, §6, §7
Standard QC were applied (read integrity, mapping statistics, library complexity, fragment bias) to remove unsatisfactory samples. […] Log 2 fold change and significance values were computed using PME count data (with replicates explicitly modeled versus pan-experiment controls), median ratio normalized, using maximum likelihood estimation rather than maximum a posteriori, and disabling the use of Cook's distance cutoff when determining acceptable adjusted p-values. […] RNA-seq signals were also normalized by read depth and visualized using the UCSC browser.
To identify small molecules that modulate target gene expression, primary human hepatocytes were prepared as a monoculture, and at least one small molecule compound was applied to the cells.
RNA-seq was performed to determine the effects of the compounds on the expression of the target genes in hepatocytes. Fold change was calculated by dividing the level of expression in the cell system that had been perturbed by the level of expression in an unperturbed system. Changes in expression having a p-value ≤0.05 were considered significant.
Significance was defined as an FPKM ≥1, a log 2(fold change) ≥0.5, and a q-value of ≤0.05 for all targets except for CPOX.

Molecule | NOTCH2 Fold Change (Log2) [1] | JAG1 Fold Change (Log2) [2] | Significant modulation of JAG1 (in words) [2] | Human hep donor-1 MECP2 (Avg_FC) 1 uM ([4]; compound 1 uM) | Human hep donor-1 MECP2 (Avg_FC) 10 uM ([4]; compound 10 uM) | Stellate MECP2 (Avg_FC) 1 uM [5] | Stellate MECP2 (Avg_FC) 10 uM [5] | further results
Cc1cc(-c2nc(-c3ccc(OC(F)(F)F)cc3)no2)nn1Cc1ccnc(N2CCN(C3CC3)CC2)c1 [BAY 87-2243] | 0 Log2 | 0.61 Log2 | significantly modulate only JAG1 |  |  |  |  | 
Cn1cc(C2=C(c3cn(C4CCN(Cc5ccccn5)CC4)c4ccccc34)C(=O)NC2=O)c2ccccc21 [Enzastaurin] | 0 Log2 | 1.03 Log2 | significantly modulate only JAG1 |  |  |  |  | ANGPTL3-LINEAR FOLD CHANGE [3]: 0.2176
c1cc(-c2cnn3cc(-c4ccc(N5CCNCC5)cc4)cnc23)c2cccnc2c1 [LDN-212854] | 0 Log2 | 1.47 Log2 | significantly modulate only JAG1 |  |  |  |  | 
O=C1NC(=O)C(c2cnc3ccccn23)=C1c1cn2c3c(cc(F)cc13)CN(C(=O)N1CCCCC1)CC2 [LY2090314] |  |  |  | 2.43 | 1.94 | 2.65 | 2.20 | ANGPTL3-LINEAR FOLD CHANGE [3]: 0.1895
Cc1ccc(F)c(NC(=O)Nc2ccc(-c3cccc4[nH]nc(N)c34)cc2)c1 [Linifanib (ABT-869), Linifanib] |  |  |  | 1.78 | 2.01 | 2.50 | 3.17 | 
O=C(O)[C@]1(Cc2cccc(Nc3nccs3)n2)CC[C@@H](Oc2cccc(Cl)c2F)CC1 [MK-5108 (VX-689)] |  |  |  | 2.42 | 2.35 | 2.17 | 2.01 | 
Cc1ccc(C(=O)Nc2ccc(Oc3cc4cnn(C)c4cc3-c3cn[nH]c3)c(F)c2)c(=O)n1-c1ccc(F)cc1 [Merestinib] | 0.62 Log2 | 0.76 Log2 | significantly modulate both JAG1 and NOTCH2 |  |  |  |  | Significant modulation of NOTCH2 (in words) ([1]; summary of Table 6): significantly modulate both JAG1 and NOTCH2; UGT1A1 Fold Change (Log2) [6]: 0.76 Log2
[H]/N=C(/N)N/C(=N/[H])NCCc1ccccc1 [Phenformin] | 0 Log2 | 1.14 Log2 | significantly modulate only JAG1 |  |  |  |  | 
COc1ccc(Cl)c(Nc2nc3ccccc3nc2NS(=O)(=O)c2cccc(NC(=O)C(C)(C)N)c2)c1 [Pilaralisib (XL147), Pilaralisib] |  |  |  | 1.95 | 1.75 | 2.28 | 2.21 | ANGPTL3-LINEAR FOLD CHANGE [3]: 0.2606
CCc1ccc(CCOc2ccc(CC3SC(=O)NC3=O)cc2)nc1 (stereo not shown) [Pioglitazone HCl] |  |  |  | 2.21 | 2.27 | 1.94 | 1.86 | 
CNC(=O)c1cc(Oc2ccc(NC(=O)Nc3ccc(Cl)c(C(F)(F)F)c3)c(F)c2)ccn1 [Regorafenib (BAY 73-4506)] |  |  |  | 2.05 | 1.92 | 2.31 | 2.77 | 
CCC(=O)N1CCN(c2ccc(-n3c(=O)ccc4cnc5ccc(-c6cnc7ccccc7c6)cc5c43)cc2C(F)(F)F)CC1 [torin1] |  |  |  |  |  | 1.87 | 3.65 | Human hep donor-2 MECP2 (Avg_FC) 1 uM ([4]; human hepatocytes donor-2, compound 1 uM): 1.34; Human hep donor-2 MECP2 (Avg_FC) 10 uM ([4]; human hepatocytes donor-2, compound 10 uM): 1.79
GDF2 (BMP9): TGF-beta activator (protein, UniProt Q9UK05 320-429, looked up) Growth/differentiation factor …: SAGAGSHCQKTSLRVNFEDIGWDSWIIAPKEYEAYECKGGCFFPLADDVTPTKHAIVQTLVHLKFPTKVGKACCVPTKLSPISVLYKDDMGVPTLKYHYEGMSVAECGCR | 0 Log2 | 1.03 Log2 | significantly modulate only JAG1 |  |  |  |  | 
BMP4: TGF-beta activator (protein, UniProt P12644 293-408, looked up) Bone morphogenetic protein 4: SPKHHSQRARKKNKNCRRHSLYVDFSDVGWNDWIVAPPGYQAFYCHGDCPFPLADHLNSTNHAIVQTLVNSVNSSIPKACCVPTELSAISMLYLDEYDKVVLKNYQEMVVEGCGCR | 0 Log2 | 0.63 Log2 | significantly modulate only JAG1 |  |  |  |  | ANGPTL3-LINEAR FOLD CHANGE [3]: 0.3463

Source: patent publication US20210161997A1, “TREATING DISEASES VIA TARGETED MODULATION OF GENE SIGNALING NETWORKS” (Camp4 Therapeutics Corporation, priority 2018, published 2021)
